Where a name gives a salt, the structure may show the parent alone.
Columns and labels:
[1] = tested on: social interaction behavior of offspring of sodium valproate- or saline-treated female rats; experiment: Social interaction in the valproic acid rat model of autism; assay type: in vivo, Sprague-Dawley rats; settings: acute administration, scored 10 min, n=10
Procedure: The N-(3-{4-[4-(8-oxo-8H-[1,3]dioxolo[4,5-g]chromen-7-yl)-butyl]-piperazin-1-yl}-phenyl)-methanesulfonamide hydrochloride was tested on social interaction of offspring of female rats which had been administered valproic acid as a sodium salt. The experimental settings of the valproic acid rat model of autism were adapted from published data (Dendrinos et al., Front. Integr. Neurosci. 2011, vol 5, art 68; Markram et al., Neuropsychopharm. 2007, vol 33, p 901-912; Schneider et al., Neuropsychopharm. 2005, vol 30, p 80-89).
Pregnant (embryonic day 8 max) female Sprague-Dawley rats [OFA (SD) Charles River Lyon, France] were quarantined for 4 days. Animals were group housed (2 per cage) in a full bottom cage (ML-H Cage, 370×235×180 mm, L×W×H; floor surface 870 cm^2) in an environmentally controlled room (temperature 21±1° C.; relative humidity 55±5%) under a 12-h light/dark cycle (lights on at 07:00 AM) with food (A04, Safe, Augy, France) and filtered water (0.2 μm pore diameter) freely available. Until weaning of offspring, animals were changed only once per week in order to disturb them as little as possible. Environmental enrichment (nesting material) was provided.
On embryonic days 12 and 13 (E12-E13), females were weighed and received three intraperitoneal injections of 2.4 ml/kg of sodium valproate (NaVPA, 200 mg/kg). Sodium valproate was dissolved in 0.9% saline for a concentration of 83.3 mg/ml, pH 7.3. Control dams received three intraperitoneal injections of saline (2.4 ml/kg). After the third injection, females were individually housed in ML-H type cages and allowed to raise their litters. Offspring were weaned between 21 to 23 days postnatally.
One sodium valproate- or saline-exposed rat and an unfamiliar naïve rat were placed in opposite corners of an arena (black arena 70 cm×70 cm×30 cm, L×I×H). Individual behavior related to social interaction such as following grooming, sniffing or biting the other rat as well as climbing over the other rat, initiated by the tested rat toward the unfamiliar rat were scored for a period of 10 min. […]

[2] = biological target: T1, human recombinant dopamine D2 receptor (Homo sapiens, UniProt P14416); experiment: Inhibition of [3H]spiperone binding, human recombinant dopamine D2 receptor; settings: human recombinant D2 vs D3 receptor
T1 construct: expressed in transfected cells
Procedure: (§1) The N-(3-{4-[4-(8-oxo-8H-[1,3]dioxolo[4,5-g]chromen-7-yl)-butyl]-piperazin-1-yl}-phenyl)-methanesulfonamide hydrochloride was evaluated in vitro as a dopamine D3 receptor ligand and modulator of the activity of that receptor in accordance with the invention in cells expressing human recombinant dopamine D3 receptor or human recombinant dopamine D2 receptor. The inhibition constant (Ki) was measured by inhibition of the binding of [^3H] spiperone as described by Cussac et al., in Naunyn-Schmiedeberg's Arch. Pharmacol. 2000, vol 361, p 569-572.

[3] = biological target: T2, human recombinant dopamine D3 receptor (Homo sapiens, UniProt P35462); experiment: Inhibition of [3H]spiperone binding, human recombinant dopamine D3 receptor; settings: cells expressing human recombinant D3 receptor, read-out: inhibition constant (Ki), dopamine D3 receptor
T2 construct: expressed in transfected cells
Procedure: as §1

T1 sequence (P14416 whole entry): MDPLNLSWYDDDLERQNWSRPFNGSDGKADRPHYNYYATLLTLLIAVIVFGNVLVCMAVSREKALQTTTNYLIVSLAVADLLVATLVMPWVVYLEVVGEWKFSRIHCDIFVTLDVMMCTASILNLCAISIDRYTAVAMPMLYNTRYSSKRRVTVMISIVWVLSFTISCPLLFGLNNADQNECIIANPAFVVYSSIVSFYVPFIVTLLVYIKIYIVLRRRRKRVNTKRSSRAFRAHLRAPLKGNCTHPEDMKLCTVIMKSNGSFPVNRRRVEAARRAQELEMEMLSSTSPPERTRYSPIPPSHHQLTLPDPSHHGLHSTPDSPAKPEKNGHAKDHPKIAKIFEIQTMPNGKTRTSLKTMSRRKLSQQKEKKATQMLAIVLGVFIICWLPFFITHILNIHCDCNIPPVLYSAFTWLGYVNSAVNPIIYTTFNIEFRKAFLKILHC
T2 sequence (P35462 whole entry): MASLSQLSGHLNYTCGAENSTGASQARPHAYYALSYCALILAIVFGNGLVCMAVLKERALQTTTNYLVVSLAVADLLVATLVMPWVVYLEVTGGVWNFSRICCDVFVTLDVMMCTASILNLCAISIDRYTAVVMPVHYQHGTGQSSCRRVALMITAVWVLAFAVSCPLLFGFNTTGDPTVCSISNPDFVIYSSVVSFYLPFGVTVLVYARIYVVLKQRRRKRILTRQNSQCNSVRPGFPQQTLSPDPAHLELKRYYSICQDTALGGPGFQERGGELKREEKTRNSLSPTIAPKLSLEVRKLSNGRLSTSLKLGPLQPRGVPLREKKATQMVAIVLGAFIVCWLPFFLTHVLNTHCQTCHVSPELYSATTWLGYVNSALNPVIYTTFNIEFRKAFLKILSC

`CS(=O)(=O)Nc1cccc(N2CCN(CCCCc3coc4cc5c(cc4c3=O)OCO5)CC2)c1` [compound according to the invention, N-(3-{4-[4-(8-oxo-8H-[1,3]dioxolo[4,5-g]chromen-7-yl)-butyl]-piperazin-1-yl}-phenyl)-methanesulfonamide hydrochloride] was tested, and the “effect on social interaction deficits induced by prenatal exposure to sodium valproate” value ([1]; 0.63 mg/kg) was “significantly reduced”, the “effect on social interaction deficits induced by prenatal exposure to sodium valproate” value ([1]; 2.5 mg/kg) was “completely reversed” and the “effect on social interaction behavior” value ([1]; offspring of saline-treated mothers) was “no significant effects”. The “affinity for dopamine D2 receptor relative to D3 (times weaker)” value [2] was 71 times and the Ki [3] was 0.17 nM.

— patent publication US10028948B2, “Chromone derivative as a dopamine D3 receptor antagonist for its use for the treatment of autism spectrum disorder” (PIERRE FABRE MEDICAMENT, priority 2013, dated 2018)
